Reference: ChEMBL document CHEMBL3244322, “5-O-Alkylated derivatives of 5-hydroxy-2'-deoxyuridine as potential antiviral agents. Anti-herpes activity of 5-propynyloxy-2'-deoxyuridine” (J Med Chem, 1978)
In brackets after ≈: the same amount, converted by molar mass.

Test system: Vaccinia virus
Assay: Antiviral activity against Vaccinia virus infected in human skin fibroblasts primed with interferon and superinduced with cyclohexamide and actinomycin D assessed as inhibition of virus-induced cytopathogenicity
Format: functional
Conditions: Orthopoxvirus vaccinia

| SMILES | MIC |
| --- | --- |
| O=c1[nH]c(=O)n([C@@H]2O[C@H](CO)[C@@H](O)[C@H]2O)cc1OCc1ccc([N+](=O)[O-])cc1 | > 600 µM |
| C=CCOc1cn([C@@H]2O[C@H](CO)[C@@H](O)[C@H]2O)c(=O)[nH]c1=O | > 600 µM |
| O=c1[nH]c(=O)n([C@H]2C[C@H](O)[C@@H](CO)O2)cc1OCc1ccc([N+](=O)[O-])cc1 | > 520 µM |
| O=c1[nH]c(=O)n([C@H]2C[C@H](O)[C@@H](CO)O2)cc1OCc1ccccc1 | > 600 µM |
| NC(=O)COc1cn([C@H]2C[C@H](O)[C@@H](CO)O2)c(=O)[nH]c1=O | 130 µM (≈ 39.2 µg/mL) |
| O=c1[nH]c(=O)n([C@@H]2O[C@H](CO)[C@@H](O)[C@H]2O)cc1OCc1ccccc1 | > 600 µM |
| O=c1[nH]c(=O)n([C@H]2C[C@H](O)[C@@H](CO)O2)cc1I [IDOXURIDINE] | 1.4 µM (≈ 0.496 µg/mL) |
| C=CCOc1cn([C@H]2C[C@H](O)[C@@H](CO)O2)c(=O)[nH]c1=O | 350 µM (≈ 99.5 µg/mL) |
| Cc1ccc(COc2cn([C@@H]3O[C@H](CO)[C@@H](O)[C@H]3O)c(=O)[nH]c2=O)cc1 | > 600 µM |
| O=c1[nH]c(=O)n([C@H]2C[C@H](O)[C@@H](CO)O2)cc1O | 40 µM (≈ 9.77 µg/mL) |
| NC(=O)COc1cn([C@@H]2O[C@H](CO)[C@@H](O)[C@H]2O)c(=O)[nH]c1=O | > 600 µM |
| Nc1ncnc2c1ncn2[C@@H]1O[C@H](CO)[C@@H](O)[C@@H]1O [VIDARABINE] | 26 µM (≈ 6.95 µg/mL) |
| C#CCOc1cn([C@H]2C[C@H](O)[C@@H](CO)O2)c(=O)[nH]c1=O | 140 µM (≈ 39.5 µg/mL) |
